According to patent US20250230193A1, “CYCLIC COMPOUND HAVING SELECTIVE KRAS INHIBITORY EFFECT ON HRAS AND NRAS” (CHUGAI SEIYAKU KABUSHIKI KAISHA, priority 2022, published 2025):

Key:
[1] = biological target: GDP-bound HRAS wild-type protein (Homo sapiens, UniProt P01112); experiment: Binding to HRAS by surface plasmon resonance (SPR), Single Cycle Kinetics; settings: KD ratio, GDP-bound HRAS wild-type vs GDP-bound KRAS wild-type, SPR
[2] = biological target: GDP-bound NRAS wild-type protein (Homo sapiens, UniProt P01111); experiment: Binding to NRAS by surface plasmon resonance (SPR), Single Cycle Kinetics; settings: KD ratio, GDP-bound NRAS wild-type vs GDP-bound KRAS wild-type, SPR
Sequence of GDP-bound NRAS wild-type protein (P01111 whole entry): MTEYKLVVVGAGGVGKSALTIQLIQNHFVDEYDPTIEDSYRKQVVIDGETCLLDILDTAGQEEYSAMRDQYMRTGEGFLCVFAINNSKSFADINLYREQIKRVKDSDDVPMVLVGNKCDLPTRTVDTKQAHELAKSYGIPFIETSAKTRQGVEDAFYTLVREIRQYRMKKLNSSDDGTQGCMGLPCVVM

Sequence of GDP-bound HRAS wild-type protein (P01112 whole entry): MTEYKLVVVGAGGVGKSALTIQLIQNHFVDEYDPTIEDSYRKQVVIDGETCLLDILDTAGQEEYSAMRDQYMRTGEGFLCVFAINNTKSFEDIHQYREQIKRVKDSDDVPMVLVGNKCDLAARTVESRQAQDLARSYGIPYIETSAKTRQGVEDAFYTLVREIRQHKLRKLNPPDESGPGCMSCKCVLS

Compound	HRAS/KRAS (ratio of KD value with respect to HRAS to KD value with respect to KRAS) [1]	NRAS/KRAS (ratio of KD value with respect to NRAS to KD value with respect to KRAS) [2]
CC[C@H](C)[C@@H]1NC(=O)[C@H](COC)N(C)C(=O)C[C@@H](C(=O)N2CCOCC2)N(C)C(=O)[C@H](C2CCCC2)N(C)C(=O)C2(CCCC2)NC(=O)[C@@H]2CCCN2C(=O)[C@H](CCc2ccc(C(F)(F)F)c(Cl)c2)NC(=O)CN(C)C(=O)[C@H](Cc2ccc(F)cc2)N2CCCCC[C@@H](C2=O)N(C)C(=O)CN(C)C1=O [PP0960]	B (a compound having 3 or more and less than 10 is denoted as B)	B (a compound having 3 or more and less than 10 is denoted as B)
CC[C@H](C)[C@@H]1NC(=O)[C@H](Cc2ccccc2)N(C)C(=O)C[C@@H](C(=O)N2CCOCC2)N(C)C(=O)[C@H](C2CCCC2)N(C)C(=O)C2(CCCC2)NC(=O)[C@@H]2CCCN2C(=O)[C@H](CCc2ccc(C(F)(F)F)c(Cl)c2)NC(=O)CN(C)C(=O)[C@H](Cc2ccc(F)cc2)N2CCCCC[C@@H](C2=O)N(C)C(=O)CN(C)C1=O [PP0961]	B (a compound having 3 or more and less than 10 is denoted as B)	B (a compound having 3 or more and less than 10 is denoted as B)
CC[C@H](C)[C@@H]1NC(=O)[C@H](Cc2cccc(F)c2)N(C)C(=O)C[C@@H](C(=O)N2CCOCC2)N(C)C(=O)[C@H](C2CCCC2)N(C)C(=O)C2(CCCC2)NC(=O)[C@@H]2CCCN2C(=O)[C@H](CCc2ccc(C(F)(F)F)c(Cl)c2)NC(=O)CN(C)C(=O)[C@H](Cc2ccc(F)cc2)N2CCCCC[C@@H](C2=O)N(C)C(=O)CN(C)C1=O [PP0962]	B (a compound having 3 or more and less than 10 is denoted as B)	B (a compound having 3 or more and less than 10 is denoted as B)
CC[C@H](C)[C@@H]1NC(=O)[C@H](Cc2cccc(Cl)c2)N(C)C(=O)C[C@@H](C(=O)N2CCOCC2)N(C)C(=O)[C@H](C2CCCC2)N(C)C(=O)C2(CCCC2)NC(=O)[C@@H]2CCCN2C(=O)[C@H](CCc2ccc(C(F)(F)F)c(Cl)c2)NC(=O)CN(C)C(=O)[C@H](Cc2ccc(F)cc2)N2CCCCC[C@@H](C2=O)N(C)C(=O)CN(C)C1=O [PP0963]	B (a compound having 3 or more and less than 10 is denoted as B)	B (a compound having 3 or more and less than 10 is denoted as B)
CC[C@H](C)[C@@H]1NC(=O)[C@H](CC(C)C)N(C)C(=O)C[C@@H](C(=O)N2CCOCC2)N(C)C(=O)[C@H](C2CCCC2)N(C)C(=O)C2(CCCC2)NC(=O)[C@@H]2CCCN2C(=O)[C@H](CCc2cc(F)c(C(F)(F)F)c(F)c2)NC(=O)CN(C)C(=O)[C@H](Cc2ccc(F)cc2)N2CCCCC[C@@H](C2=O)N(C)C(=O)CN(C)C1=O [PP0964]	B (a compound having 3 or more and less than 10 is denoted as B)	B (a compound having 3 or more and less than 10 is denoted as B)
CCO[C@@H]1C[C@H]2C(=O)NC3(CCCC3)C(=O)N(C)[C@@H](C3CCCC3)C(=O)N(C)[C@H](C(=O)N3CCOCC3)CC(=O)N(C)[C@@H](CC(C)C)C(=O)N[C@@H]([C@@H](C)CC)C(=O)N(C)CC(=O)N(C)[C@H]3CCCCCN(C3=O)[C@@H](Cc3ccc(F)cc3)C(=O)N(C)CC(=O)N[C@@H](CCc3ccc(C(F)(F)F)c(Cl)c3)C(=O)N2C1 [PP0965]	B (a compound having 3 or more and less than 10 is denoted as B)	B (a compound having 3 or more and less than 10 is denoted as B)
